# Earlier results, collected in paper PMC7605553 (bioRxiv, 2020).
# pEC50: −log10 of the molar value. Where a name gives a salt, the structure may show the parent alone.
# Tested on: SARS-CoV-2
# Conditions: read-out: EC50 for inhibition of SARS-CoV-2 infection; Calu-3 cells
compound,measurement,value
CN(C)C(=O)COC(=O)Cc1ccc(OC(=O)c2ccc(NC(=N)N)cc2)cc1 [camostat mesylate],pEC50,6.00
